Source: patent publication US4452812A, “Organic complex of platinum, its preparation and its use for treating malignant tumors” (Sanofi, priority 1980, dated 1984)

How the values were obtained:
[1] = test system: renal and hepatic parenchyma; assay: Renal and hepatic toxicity; type: in vivo, mouse (Swiss female)
Description: It was thus of interest to compare the effects of the novel compound of the invention with those of the already known compounds listed above on the kidney and the liver, i.e. the organs in which the greatest amount of platinum accumulates.
Swiss female mice (Evic-Ceba, Bordeaux) of 20 to 22 g were treated by intraperitoneal route D0 and then sacrificed on D1, D4 and D10.
Slices 5 microns thick were coloured with hemalun eosine stain.

[2] = test system: leukemia L 1210; assay: Anti-tumour activity, leukemia L 1210, i.p. graft, i.p. treatment
Description: […] females (CNRS, Orleans) of 20 to 22 g
(a) i.p. graft--i.p. treatment
10^5 cells were grafted intraperitoneally on D0 and intraperitoneal treatment was carried out 24 hours later, D1, in one single injection.
PHD and PHM were suspended in a 4% Klucel (hydroxy propyl cellulose) solution (the word "Klucel" is a registered trademark of Hercules Incorporated, Delaware, U.S.A.).
The solutions of these compounds were prepared extemporaneously. The increase in life span, ILS (%), were calculated in comparison with the controls by the following formula: [formula] Deaths were recorded until day 30 for L 1210 tumour and until day 60 for S180 tumour.

[3] = test system: mouse; assay: Acute toxicity in the mouse; type: in vivo, mouse (Swiss female); conditions: mouse, one single injection
Description: Acute toxicity, one single injection of the compound, was measured using Swiss female mice (Evic-Ceba, Bordeaux) of 21 to 23 g. and Sprague-Dawley rats. Ten animals were treated for each dose studied.

[4] = test system: abdominal viscera; assay: Peritonitis (adhesion and hardening of abdominal viscera); type: in vivo, mouse
Description: (§1) The solutions of these compounds were prepared extemporaneously.
As discussed above this problem seems to be linked to the presence of the 1,2-diaminocyclohexane ligand.

[5] = test system: DNA; assay: Platinum fixed on DNA of L 1210 cells in vivo; set-up: species or system mouse (DBA/2); conditions: PDD 9 mg/kg, PHIC 150 mg/kg; two hours after treatment on D3
Description: DBA/2 mice received 10^6 L 1210 cells on D0 and were treated three days later with an amount of platinum compound equal to the LD0 in the healthy mouse. Two hours after treatment on D3, the animals were sacrificed. […] Platinum was monitored by atomic absorption for whole cells and also on the DNA which was purified by phenol extraction. […] Under these conditions, one fixed platinum atom per 3000 nucleotides was found, i.e. a total of 1% of the amount which penetrated the cells was complexed to DNA. […] 10^-16 of platinum per cell.

[6] = test system: sarcoma S 180; assay: Anti-tumour activity, sarcoma S 180 ascite, i.p. graft, i.p. treatment; type: in vivo, mouse (Swiss female); conditions: for ILS: single i.p. on D1
Description: Swiss female mice (Evic-Ceba, Bordeaux) of 20 to 22 g
10^6 cells intraperitoneally grafted on D0
intraperitoneal treatment 24 hours later, D1, in one single injection.
as §1

[7] = test system: L 1210 cells; assay: Cytotoxicity on L 1210 cells in culture; type: cell-based; conditions: read-out: ID50 (reduces by 50% the rate of growth of the cells); usually 24 to 48 hours contact
[8] = Stability in sodium chloride solution; type: physicochemical; conditions: 9% sodium chloride
Description: This compound has an exceptionally high degree of solubility.
as §1

[9] = L 1210, 4 mg/kg i.p. on D1, day 30
[10] = S 180, 4 mg/kg i.p. on D1, day 60
[11] = S 180, 5 mg/kg i.p. on D1, day 60
[12] = S 180, 10 mg/kg i.p. on D1, day 60
[13] = S 180, 50 mg/kg i.p. on D1, day 60
[14] = S 180, 1 mg/kg i.p. on D1, day 60
[15] = S 180, 2 mg/kg i.p. on D1, day 60

cis-citratodiammineplatinum (II) [PAC]
renal and hepatic alterations ([1]; mouse, in vivo, ip): These alterations were observed | ILS ([2]; 100 mg/kg, single injection on D1): 17% | LD0 (maximum nonlethal dose) [3]: 125 mg/kg | occurrence of peritonitis in relation to the 1,2-diaminocyclohexane ligand ([4]; mouse, in vivo, ip): never observed

N.N.[Cl][Pt][Cl] [PDD, cis-dichlorodiammine platinum (II)]
Number of fixed platinum atoms per nucleotide on DNA [5]: 1/30000 | amount that penetrated the cells which was complexed to DNA [5]: 1% | nucleotides per one fixed platinum atom [5]: 3000 nucleotides | ILS ([2]; 2 mg/kg, single i.p. on D1): 28% | ILS ([2]; 4 mg/kg, single i.p. on D1): 52% | ILS ([2]; 6 mg/kg, single i.p. on D1): 75% | ILS ([2]; 8 mg/kg, single i.p. on D1): 106% | Survivals [2, 9]: 0% | Survivals ([2]; L 1210, 6 mg/kg i.p. on D1, day 30): 0% | Survivals ([2]; L 1210, 8 mg/kg i.p. on D1, day 30): 0% | Surviving animals having received L 1210 leukaemia and S 180 sarcoma ([2]; summary for L 1210 and S 180): No | ILS ([6]; 4 mg/kg): 41% | ILS ([6]; 8 mg/kg): 65% | Survivals [6, 10]: 0% | Survivals ([6]; S 180, 8 mg/kg i.p. on D1, day 60): 0% | IC50 [7]: 2330 nM | occurrence of peritonitis in relation to the 1,2-diaminocyclohexane ligand ([4]; mouse, in vivo, ip): never observed

NC1CCCCC1N.O=C([O-])CC(=O)[O-].[Pt+2] (stereo not drawn) [PHM, cis-malonato (1,2 diaminocyclohexane) platinum (II)]
renal and hepatic alterations ([1]; mouse, in vivo, ip): These alterations were observed | ILS ([2]; 50 mg/kg, single i.p. on D1): 103% | Survivals ([2]; L 1210, 50 mg/kg i.p. on D1, day 30): 10% | ILS ([6]; 5 mg/kg): 25% | ILS ([6]; 10 mg/kg): 36% | ILS ([6]; 20 mg/kg): 44% | ILS ([6]; 40 mg/kg): 60% | ILS ([6]; 50 mg/kg): 96% | Survivals [6, 11]: 0% | Survivals [6, 12]: 0% | Survivals ([6]; S 180, 20 mg/kg i.p. on D1, day 60): 0% | Survivals ([6]; S 180, 40 mg/kg i.p. on D1, day 60): 0% | Survivals [6, 13]: 0% | IC50 [7]: 390 nM | occurrence of peritonitis in relation to the 1,2-diaminocyclohexane ligand ([4]; mouse, in vivo, ip): seems to be correlated with the presence of 1,2-diaminocyclohexane | peritonitis ([4]; mouse, in vivo, ip): most of the mice reaching 30 days of survival treatment with PHM and PHIC developed peritonitis

cis-(t-aconitato) (1,2-diaminocyclohexane) platinum (II) [PHTA, reference compound]
ILS ([2]; 500 mg/kg, single injection on D1): 13% | LD0 (maximum nonlethal dose) [3]: > 500 mg/kg

NC1CCCCC1N.O.O=S(=O)([O-])[O-].[Pt+2] (stereo not drawn) [PHS, cis-sulfatomonoaquo(1,2 diaminocyclohexane) platinum (II)]
renal and hepatic alterations ([1]; i.p. at ~LD0 (mg/kg): PDD 8, PAC 100, PHM 50, PHD 4, PHS 5, PHC 120, PHIC 150, D1, D4, D10): vascular dilation and proximal distorted tubules | change to chlorinated derivative in sodium chloride solution [8]: almost instantaneously to the formation of a yellow insoluble chlorinated compound | ILS ([2]; 5 mg/kg, single i.p. on D1): 112% | Survivals ([2]; L 1210, 5 mg/kg i.p. on D1, day 30): 40% | ILS ([6]; 0.5 mg/kg): 4% | ILS ([6]; 1 mg/kg): 10% | ILS ([6]; 2 mg/kg): 25% | ILS ([6]; 4 mg/kg): 47% | ILS ([6]; 5 mg/kg): 112% | Survivals ([6]; S 180, 0.5 mg/kg i.p. on D1, day 60): 0% | Survivals [6, 14]: 0% | Survivals [6, 15]: 0% | Survivals [6, 10]: 0% | Survivals [6, 11]: 10% | IC50 [7]: 190 nM | occurrence of peritonitis in relation to the 1,2-diaminocyclohexane ligand ([4]; i.p.): seems to be correlated with the presence of 1,2-diaminocyclohexane

cis-citrato (1,2-diaminocyclohexane) platinum (II) [PHC]
renal and hepatic alterations ([1]; mouse, in vivo, ip): did not provoke any significant alterations | ILS ([2]; 120 mg/kg, single i.p. on D1, with 5 mice only): 90% | Survivals ([2]; L 1210, 120 mg/kg i.p. on D1, day 30): 0% | ILS ([6]; 10 mg/kg): 20% | ILS ([6]; 25 mg/kg): 124% | ILS ([6]; 50 mg/kg): 121% | Survivals [6, 12]: 0% | Survivals ([6]; S 180, 25 mg/kg i.p. on D1, day 60): 20% | Survivals [6, 13]: 30% | occurrence of peritonitis in relation to the 1,2-diaminocyclohexane ligand ([4]; mouse, in vivo, ip): seems to be correlated with the presence of 1,2-diaminocyclohexane

cis-isocitratodiammineplatinum(II) [PAIC]
ILS ([2]; 75 mg/kg, single injection on D1): 74% | LD0 (maximum nonlethal dose) [3]: 75 mg/kg | occurrence of peritonitis in relation to the 1,2-diaminocyclohexane ligand ([4]; mouse, in vivo, ip): never observed

NC1CCCCC1N.[Cl][Pt][Cl] (stereo not drawn) [PHD, CIS-DICHLORO(1,2-DIAMINOCYCLOHEXANE) PLATINUM (II)]
renal and hepatic alterations ([1]; mouse, in vivo, ip): vascular alterations without any hyaline casts | ILS ([2]; 1 mg/kg, single i.p. on D1): 5% | ILS ([2]; 2 mg/kg, single i.p. on D1): 49% | ILS ([2]; 4 mg/kg, single i.p. on D1): 65% | Survivals ([2]; L 1210, 1 mg/kg i.p. on D1, day 30): 0% | Survivals ([2]; L 1210, 2 mg/kg i.p. on D1, day 30): 0% | Survivals [2, 9]: 0% | ILS ([6]; 1 mg/kg): 100% | ILS ([6]; 2 mg/kg): 128% | ILS ([6]; 4 mg/kg): 127% | Survivals [6, 14]: 0% | Survivals [6, 15]: 20% | Survivals [6, 10]: 10% | LD0 (maximum nonlethal dose) [3]: 7 mg/kg | IC50 [7]: 130 nM | occurrence of peritonitis in relation to the 1,2-diaminocyclohexane ligand ([4]; mouse, in vivo, ip): seems to be correlated with the presence of 1,2-diaminocyclohexane
